# Measured values reported in patent US20120328717A1, “PHARMACEUTICAL KIT FOR TREATING NEURONAL DAMAGES” (priority 2011, published 2012).
# What was measured:
# [1] = system: middle cerebral artery occlusion (MCAO) animal models with ischemic strokes; assay: Evaluation of infarct volume by TTC staining after MCAO and reperfusion; assay type: in vivo, Sprague-Dawley rats; settings: Experiment 1; MCAO 90 min, reperfusion 72 hr; single dose: 45 mg/kg MgSO4 i.v. after MCAO or 6 mg/kg nimesulide i.p. before reperfusion
# Experimental: 150 Sprague-Dawley rats (SD rats) weighing 220-250 gm were purchased from the Laboratory Animal Center of National Chung Kung University. In the present experiments, middle cerebral artery occlusion (MCAO) known in the art was performed on SD rats to establish animal models with ischemic strokes by using occluding intra-luminal suture. The process for performing MCAO is briefly described as follows. A segment of 4-O nylon with blunted tip was inserted through the right internal carotid artery to occlude blood flow of middle cerebral artery (MCA). Laser Doppler flowmeter was used to monitor changes of cerebral blood flows in the MCA territory. […] Anesthetic time was limited to 20 minutes to minimize the influence of isoflurane on the outcome of MCAO. After recovery from anesthesia, rats without body asymmetry were regarded as failed MCAO models and excluded from further experiments. After MCAO was established for 90 min, intra-luminal occluder was removed to re-perfuse the brain. […] When SD rats in each group were treated with MCAO for 90 min and reperfusion for 72 hr, infarct volumes were evaluated by TTC staining.
# [2] = system: middle cerebral artery occlusion (MCAO) animal models with ischemic strokes; assay: Evaluation of brain edema (brain water content, wet-dry method) after MCAO; assay type: in vivo, Sprague-Dawley rats; settings: Experiment 1; 48 hr after MCAO and reperfusion; 45 mg/kg MgSO4 i.v., 6 mg/kg nimesulide i.p.
# Experimental: In the present experiments, middle cerebral artery occlusion (MCAO) known in the art was performed on SD rats to establish animal models with ischemic strokes by using occluding intra-luminal suture. The process for performing MCAO is briefly described as follows. A segment of 4-O nylon with blunted tip was inserted through the right internal carotid artery to occlude blood flow of middle cerebral artery (MCA). Laser Doppler flowmeter was used to monitor changes of cerebral blood flows in the MCA territory. […] Anesthetic time was limited to 20 minutes to minimize the influence of isoflurane on the outcome of MCAO. After recovery from anesthesia, rats without body asymmetry were regarded as failed MCAO models and excluded from further experiments. After MCAO was established for 90 min, intra-luminal occluder was removed to re-perfuse the brain. […] Herein, cerebral edema was determined by measuring the brain water content with the wet-dry method after MCAO was established for 48 hr. […] The difference of water content in ipsilateral and contralateral hemisphere (Δ% of water content) 48 hr after ischemia-reperfusion injury was evaluated with the wet-dry method.
structure (smiles),measurement,setting,value
O=S(=O)([O-])[O-].[Mg+2] [MgSO4],infarct volume compared to SVe group,[1],a decrease of infarct volume was not observed
same,"post-ischemia brain edema (Δ% of water content, ipsilateral vs contralateral hemisphere) compared to SVe group",[2],cannot be Observed
"CS(=O)(=O)Nc1ccc([N+](=O)[O-])cc1Oc1ccccc1 [nimesulide, N-(4-Nitro-2-phenoxyphenyl)methane-sulfonamide]",infarct volume compared to SVe group,[1],no neuro-protective effect
same,"post-ischemia brain edema (Δ% of water content, ipsilateral vs contralateral hemisphere) compared to SVe group",[2],cannot be Observed
